Experimental data published in PMC9007951, “Systematically evaluating DOTATATE and FDG as PET immuno-imaging tracers of cardiovascular inflammation” (Scientific Reports, 2022).
Like-named read-outs stand apart in the source and are kept apart here.

Assay: Timed organ biodistribution of [^64Cu]Cu-DOTATATE by ex vivo gamma counting
Type: in vivo, mice
Details: mouse, intravenous, 1.85 MBq, total radioactivity, median (IQR); for tissue uptake at 2 h: 120 min after injection; for tissue uptake at 1 min: 1 min after injection; for tissue uptake at 0.5 h: 30 min after injection; for tissue uptake at 5 min: 5 min after injection; for tissue uptake at 1 h: 60 min after injection; for tissue uptake at 0.25 h: 15 min after injection
Procedure: Wild-type and atherosclerotic animals were injected with approximately 1.85 MBq of [^64Cu]Cu-DOTATATE and euthanized at either 1, 5, 15, 30, 60 or 120 min after injection (Supplementary Fig. S1A) to evaluate the tracer’s biodistribution. After euthanasia, an insulin syringe was used to collect blood samples from the right ventricle. Blood samples were used for the establishment of pharmacokinetics profile. Mice were then perfused with 20 mL of phosphate-buffered saline (PBS) and tissues of interest (heart, aorta, bone marrow, spleen, liver, stomach, bladder, kidneys, intestines, lungs, adrenal gland, muscles and pancreas) were harvested. Tissues were blotted for gamma counting on a Wizard2 2480 automatic gamma counter (Perkin Elmer, Waltham, MA). Values were corrected for decay and normalized to tissue weight to express radioactivity concentration as percentage injected dose per gram (%ID/g). […] To investigate the tracer’s distribution within different blood compartments, after gamma counting, 100 μL of blood were spun down at 2000 g for 15 min at 4 °C. Plasma (supernatant) and cells (pellet) were gamma counted and expressed as percentage of total activity. The remainder of the blood was separated using Lymphoprep density gradient medium (Nycomed Pharma, Zurich, Switzerland) following manufacturer’s instructions. Percentage of activity in mononuclear and polynuclear cells was calculated.

[1] = liver, female C57BL/6 mice, N=3-7, read-out: Tissue radioactivity, liver
[2] = lungs, female Apoe^-/- mice 12 weeks on Western Diet, N=3-8, read-out: Tissue radioactivity, lungs
[3] = lungs, female C57BL/6 mice, N=3-7, read-out: Tissue radioactivity, lungs
[4] = lymph node, female Apoe^-/- mice 12 weeks on Western Diet, N=3-8, read-out: Tissue radioactivity, lymph node
[5] = lymph node, female C57BL/6 mice, N=3-7, read-out: Tissue radioactivity, lymph node
[6] = muscle, female Apoe^-/- mice 12 weeks on Western Diet, N=3-8, read-out: Tissue radioactivity, muscle
[7] = muscle, female C57BL/6 mice, N=3-7, read-out: Tissue radioactivity, muscle
[8] = pancreas, female Apoe^-/- mice 12 weeks on Western Diet, N=3-8, read-out: Tissue radioactivity, pancreas
[9] = pancreas, female C57BL/6 mice, N=3-7, read-out: Tissue radioactivity, pancreas
[10] = small intestine, female Apoe^-/- mice 12 weeks on Western Diet, N=3-8, read-out: Tissue radioactivity, small intestine
[11] = small intestine, female C57BL/6 mice, N=3-7, read-out: Tissue radioactivity, small intestine
[12] = spleen, female Apoe^-/- mice 12 weeks on Western Diet, N=3-8, read-out: Tissue radioactivity, spleen
[13] = spleen, female C57BL/6 mice, N=3-7, read-out: Tissue radioactivity, spleen
[14] = stomach, female Apoe^-/- mice 12 weeks on Western Diet, N=3-8, read-out: Tissue radioactivity, stomach
[15] = stomach, female C57BL/6 mice, N=3-7, read-out: Tissue radioactivity, stomach
[16] = tail, female Apoe^-/- mice 12 weeks on Western Diet, N=3-8, read-out: Tissue radioactivity, tail
[17] = tail, female C57BL/6 mice, N=3-7, read-out: Tissue radioactivity, tail
[18] = thoracic aorta, female Apoe^-/- mice 12 weeks on Western Diet, N=3-8, read-out: Tissue radioactivity, thoracic aorta
[19] = thoracic aorta, female C57BL/6 mice, N=3-7, read-out: Tissue radioactivity, thoracic aorta

## C[C@@H](O)[C@H](NC(=O)[C@@H]1CSSC[C@H](NC(=O)[C@@H](Cc2ccccc2)NC(=O)CN2CCN(CC(=O)O)CCN(CC(=O)O)CCN(CC(=O)O)CC2)C(=O)N[C@@H](Cc2ccc(O)cc2)C(=O)N[C@H](Cc2c[nH]c3ccccc23)C(=O)N[C@@H](CCCCN)C(=O)N[C@@H]([C@@H](C)O)C(=O)N1)C(=O)O [[^64Cu]Cu-DOTATATE, metal not drawn]
liver, female Apoe^-/- mice 12 weeks on Western Diet, N=3-8, read-out: Tissue radioactivity, liver
  tissue uptake at 2 h: 6.3 %ID/g
[1]
  tissue uptake at 1 min: 10 %ID/g
  tissue uptake at 0.5 h: 6.4 %ID/g
[2]
  tissue uptake at 1 min: 2.1 %ID/g
  tissue uptake at 5 min: 2.6 %ID/g
  tissue uptake at 0.5 h: 1.6 %ID/g
  tissue uptake at 1 h: 2.5 %ID/g
  tissue uptake at 2 h: 2.8 %ID/g
[3]
  tissue uptake at 5 min: 3.2 %ID/g
  tissue uptake at 0.5 h: 1.3 %ID/g
  tissue uptake at 1 h: 1.1 %ID/g
[4]
  tissue uptake at 1 min: 2.6 %ID/g
  tissue uptake at 5 min: 3.2 %ID/g
  tissue uptake at 0.25 h: 3 %ID/g
  tissue uptake at 0.5 h: 2.4 %ID/g
  tissue uptake at 1 h: 2.1 %ID/g
[5]
  tissue uptake at 1 min: 3 %ID/g
  tissue uptake at 5 min: 4.7 %ID/g
  tissue uptake at 0.25 h: 3.2 %ID/g
  tissue uptake at 1 h: 1.3 %ID/g
  tissue uptake at 2 h: 0.6 %ID/g
[6]
  tissue uptake at 1 min: 1.2 %ID/g
  tissue uptake at 5 min: 1.4 %ID/g
  tissue uptake at 0.25 h: 0.6 %ID/g
  tissue uptake at 0.5 h: 0.7 %ID/g
  tissue uptake at 1 h: 0.4 %ID/g
  tissue uptake at 2 h: 0.3 %ID/g
[7]
  tissue uptake at 1 min: 2 %ID/g
  tissue uptake at 5 min: 1.6 %ID/g
  tissue uptake at 0.5 h: 0.5 %ID/g
  tissue uptake at 1 h: 0.3 %ID/g
  tissue uptake at 2 h: 0.3 %ID/g
[8]
  tissue uptake at 1 min: 4.7 %ID/g
  tissue uptake at 5 min: 4.1 %ID/g
  tissue uptake at 0.25 h: 3.5 %ID/g
  tissue uptake at 0.5 h: 3.4 %ID/g
  tissue uptake at 1 h: 2.7 %ID/g
  tissue uptake at 2 h: 2.6 %ID/g
[9]
  tissue uptake at 1 min: 8.7 %ID/g
  tissue uptake at 5 min: 5.3 %ID/g
  tissue uptake at 0.25 h: 6.1 %ID/g
  tissue uptake at 0.5 h: 5.8 %ID/g
  tissue uptake at 1 h: 4.8 %ID/g
  tissue uptake at 2 h: 2.6 %ID/g
[10]
  tissue uptake at 1 min: 1.4 %ID/g
  tissue uptake at 5 min: 1.2 %ID/g
  tissue uptake at 0.5 h: 3.1 %ID/g
  tissue uptake at 2 h: 7.2 %ID/g
[11]
  tissue uptake at 1 min: 3 %ID/g
  tissue uptake at 5 min: 2 %ID/g
  tissue uptake at 0.25 h: 1.7 %ID/g
  tissue uptake at 0.5 h: 2.6 %ID/g
  tissue uptake at 1 h: 2.4 %ID/g
[12]
  tissue uptake at 1 min: 2 %ID/g
  tissue uptake at 5 min: 1.1 %ID/g
  tissue uptake at 0.25 h: 1.2 %ID/g
  tissue uptake at 0.5 h: 1.1 %ID/g
  tissue uptake at 1 h: 0.8 %ID/g
  tissue uptake at 2 h: 1.2 %ID/g
[13]
  tissue uptake at 5 min: 1.5 %ID/g
  tissue uptake at 0.5 h: 0.7 %ID/g
  tissue uptake at 1 h: 0.6 %ID/g
  tissue uptake at 2 h: 0.5 %ID/g
[14]
  tissue uptake at 1 min: 2.1 %ID/g
  tissue uptake at 5 min: 2.4 %ID/g
  tissue uptake at 2 h: 5 %ID/g
[15]
  tissue uptake at 1 min: 2.3 %ID/g
  tissue uptake at 5 min: 2.4 %ID/g
  tissue uptake at 0.25 h: 5 %ID/g
  tissue uptake at 0.5 h: 7.8 %ID/g
  tissue uptake at 1 h: 8 %ID/g
  tissue uptake at 2 h: 3.2 %ID/g
[16]
  tissue uptake at 5 min: 2.5 %ID/g
  tissue uptake at 0.25 h: 2.5 %ID/g
  tissue uptake at 0.5 h: 3.1 %ID/g
  tissue uptake at 1 h: 2 %ID/g
  tissue uptake at 2 h: 2.7 %ID/g
[17]
  tissue uptake at 1 min: 3.5 %ID/g
  tissue uptake at 5 min: 2.7 %ID/g
  tissue uptake at 1 h: 1.6 %ID/g
  tissue uptake at 2 h: 0.6 %ID/g
[18]
  tissue uptake at 1 min: 2.9 %ID/g
  tissue uptake at 5 min: 2.1 %ID/g
  tissue uptake at 0.25 h: 2 %ID/g
  tissue uptake at 1 h: 2.1 %ID/g
  tissue uptake at 2 h: 2.1 %ID/g
[19]
  tissue uptake at 1 min: 3.2 %ID/g
  tissue uptake at 5 min: 3.1 %ID/g
  tissue uptake at 0.25 h: 1.6 %ID/g
  tissue uptake at 0.5 h: 1.3 %ID/g
  tissue uptake at 1 h: 1.2 %ID/g
  tissue uptake at 2 h: 1 %ID/g
